The NIST ThermoML archive (doi:10.1016/j.fluid.2018.07.028)
Numbers after ± are expanded uncertainties.

Experiment: activity coefficient (dimensionless); of the first substance listed, at infinite dilution; xn = mol fraction of the nth substance listed
Conditions: 101.33 kPa, Liquid, Chromatography, x1 = 0

SMILES	activity coefficient (358.15 K)	activity coefficient (368.15 K)	activity coefficient (378.15 K)	activity coefficient (388.15 K)	activity coefficient (398.15 K)	activity coefficient (408.15 K)
CC(C)CC(C)(C)C [2,2,4-trimethylpentane] + CCCC[P+](CCCC)(CCCC)CCCC.O=S(=O)([N-]S(=O)(=O)C(F)(F)F)C(F)(F)F	5.43 ± 0.37	5.42 ± 0.37	5.41 ± 0.37	5.4 ± 0.37	5.39 ± 0.37	5.39 ± 0.37
CCC(C)(C)C [2,2-dimethylbutane] + CCCC[P+](CCCC)(CCCC)CCCC.O=S(=O)([N-]S(=O)(=O)C(F)(F)F)C(F)(F)F	3.93 ± 0.27	3.98 ± 0.27	4.01 ± 0.27	4.05 ± 0.28	4.08 ± 0.28	4.12 ± 0.28
CCOC(C)(C)C [2-ethoxy-2-methylpropane] + CCCC[P+](CCCC)(CCCC)CCCC.O=S(=O)([N-]S(=O)(=O)C(F)(F)F)C(F)(F)F	2.72 ± 0.19	2.78 ± 0.19	2.84 ± 0.19	2.91 ± 0.2	2.96 ± 0.2	3.02 ± 0.21
CCC(C)(C)OC [2-methoxy-2-methylbutane] + CCCC[P+](CCCC)(CCCC)CCCC.O=S(=O)([N-]S(=O)(=O)C(F)(F)F)C(F)(F)F	2 ± 0.14	2.07 ± 0.14	2.13 ± 0.14	2.2 ± 0.15	2.26 ± 0.15	2.32 ± 0.16
COC(C)(C)C [2-methoxy-2-methylpropane] + CCCC[P+](CCCC)(CCCC)CCCC.O=S(=O)([N-]S(=O)(=O)C(F)(F)F)C(F)(F)F	1.66 ± 0.11	1.73 ± 0.12	1.8 ± 0.12	1.87 ± 0.13	1.94 ± 0.13	2.01 ± 0.14
CC(C)CO [2-methyl-1-propanol] + CCCC[P+](CCCC)(CCCC)CCCC.O=S(=O)([N-]S(=O)(=O)C(F)(F)F)C(F)(F)F	1.57 ± 0.1	1.52 ± 0.1	1.46 ± 0.1	1.41 ± 0.09	1.37 ± 0.09	1.33 ± 0.09
CC(C)(C)O [2-methylpropan-2-ol] + CCCC[P+](CCCC)(CCCC)CCCC.O=S(=O)([N-]S(=O)(=O)C(F)(F)F)C(F)(F)F	1.41 ± 0.09	1.4 ± 0.09	1.38 ± 0.09	1.37 ± 0.09	1.36 ± 0.09	1.35 ± 0.09
CCC(C)CC [3-methylpentane] + CCCC[P+](CCCC)(CCCC)CCCC.O=S(=O)([N-]S(=O)(=O)C(F)(F)F)C(F)(F)F	4.02 ± 0.27	4.04 ± 0.28	4.06 ± 0.28	4.09 ± 0.28	4.11 ± 0.28	4.13 ± 0.28
C=C(C)c1ccccc1 [(1-methylethenyl)benzene] + CCCC[P+](CCCC)(CCCC)CCCC.O=S(=O)([N-]S(=O)(=O)C(F)(F)F)C(F)(F)F	1.4 ± 0.09	1.46 ± 0.1	1.52 ± 0.1	1.58 ± 0.1	1.64 ± 0.11	1.7 ± 0.11
CC(C)=O [acetone] + CCCC[P+](CCCC)(CCCC)CCCC.O=S(=O)([N-]S(=O)(=O)C(F)(F)F)C(F)(F)F	0.503 ± 0.038	0.524 ± 0.039	0.545 ± 0.04	0.567 ± 0.041	0.587 ± 0.042	0.607 ± 0.042
CC#N [acetonitrile] + CCCC[P+](CCCC)(CCCC)CCCC.O=S(=O)([N-]S(=O)(=O)C(F)(F)F)C(F)(F)F	0.602 ± 0.042	0.613 ± 0.043	0.625 ± 0.043	0.635 ± 0.044	0.645 ± 0.044	0.655 ± 0.045
c1ccccc1 [benzene] + CCCC[P+](CCCC)(CCCC)CCCC.O=S(=O)([N-]S(=O)(=O)C(F)(F)F)C(F)(F)F	0.836 ± 0.054	0.869 ± 0.056	0.901 ± 0.057	0.933 ± 0.059	0.963 ± 0.061	0.994 ± 0.062
CCCCO [butan-1-ol] + CCCC[P+](CCCC)(CCCC)CCCC.O=S(=O)([N-]S(=O)(=O)C(F)(F)F)C(F)(F)F	1.67 ± 0.11	1.61 ± 0.11	1.56 ± 0.1	1.51 ± 0.1	1.46 ± 0.1	1.42 ± 0.09
CCC(C)O (stereo not given) [butan-2-ol] + CCCC[P+](CCCC)(CCCC)CCCC.O=S(=O)([N-]S(=O)(=O)C(F)(F)F)C(F)(F)F	1.53 ± 0.1	1.49 ± 0.1	1.46 ± 0.1	1.43 ± 0.09	1.4 ± 0.09	1.37 ± 0.09
CCCC=O [butanal] + CCCC[P+](CCCC)(CCCC)CCCC.O=S(=O)([N-]S(=O)(=O)C(F)(F)F)C(F)(F)F	0.669 ± 0.045	0.699 ± 0.047	0.729 ± 0.048	0.758 ± 0.05	0.787 ± 0.051	0.817 ± 0.053
C1CCCCCC1 [cycloheptane] + CCCC[P+](CCCC)(CCCC)CCCC.O=S(=O)([N-]S(=O)(=O)C(F)(F)F)C(F)(F)F	3.42 ± 0.23	3.41 ± 0.23	3.4 ± 0.23	3.39 ± 0.23	3.38 ± 0.23	3.37 ± 0.23
C1CCCCC1 [cyclohexane] + CCCC[P+](CCCC)(CCCC)CCCC.O=S(=O)([N-]S(=O)(=O)C(F)(F)F)C(F)(F)F	2.85 ± 0.19	2.85 ± 0.19	2.85 ± 0.19	2.86 ± 0.19	2.86 ± 0.19	2.86 ± 0.19
C1=CCCCC1 [cyclohexene] + CCCC[P+](CCCC)(CCCC)CCCC.O=S(=O)([N-]S(=O)(=O)C(F)(F)F)C(F)(F)F	2.24 ± 0.15	2.27 ± 0.15	2.29 ± 0.16	2.32 ± 0.16	2.34 ± 0.16	2.37 ± 0.16
C1CCCCCCC1 [cyclooctane] + CCCC[P+](CCCC)(CCCC)CCCC.O=S(=O)([N-]S(=O)(=O)C(F)(F)F)C(F)(F)F	4.08 ± 0.28	4.04 ± 0.28	4 ± 0.27	3.97 ± 0.27	3.94 ± 0.27	3.91 ± 0.27
C1CCCC1 [cyclopentane] + CCCC[P+](CCCC)(CCCC)CCCC.O=S(=O)([N-]S(=O)(=O)C(F)(F)F)C(F)(F)F	2.33 ± 0.16	2.35 ± 0.16	2.37 ± 0.16	2.38 ± 0.16	2.4 ± 0.16	2.42 ± 0.16
CCCCCCCCCC [decane] + CCCC[P+](CCCC)(CCCC)CCCC.O=S(=O)([N-]S(=O)(=O)C(F)(F)F)C(F)(F)F	10.4 ± 0.7	10.1 ± 0.7	9.88 ± 0.67	9.67 ± 0.66	9.47 ± 0.65	9.29 ± 0.63
CCOCC [diethyl ether] + CCCC[P+](CCCC)(CCCC)CCCC.O=S(=O)([N-]S(=O)(=O)C(F)(F)F)C(F)(F)F	1.65 ± 0.11	1.7 ± 0.11	1.76 ± 0.12	1.8 ± 0.12	1.86 ± 0.13	1.91 ± 0.13
CC(C)OC(C)C [diisopropyl ether] + CCCC[P+](CCCC)(CCCC)CCCC.O=S(=O)([N-]S(=O)(=O)C(F)(F)F)C(F)(F)F	2.88 ± 0.2	2.94 ± 0.2	3 ± 0.2	3.05 ± 0.21	3.11 ± 0.21	3.17 ± 0.22
CCCOCCC [dipropyl ether] + CCCC[P+](CCCC)(CCCC)CCCC.O=S(=O)([N-]S(=O)(=O)C(F)(F)F)C(F)(F)F	2.73 ± 0.19	2.78 ± 0.19	2.83 ± 0.19	2.88 ± 0.2	2.93 ± 0.2	2.98 ± 0.2
CCO [ethanol] + CCCC[P+](CCCC)(CCCC)CCCC.O=S(=O)([N-]S(=O)(=O)C(F)(F)F)C(F)(F)F	1.42 ± 0.09	1.36 ± 0.09	1.31 ± 0.09	1.26 ± 0.08	1.22 ± 0.08	1.18 ± 0.08
CCOC(C)=O [ethyl acetate] + CCCC[P+](CCCC)(CCCC)CCCC.O=S(=O)([N-]S(=O)(=O)C(F)(F)F)C(F)(F)F	0.835 ± 0.054	0.869 ± 0.056	0.905 ± 0.057	0.939 ± 0.059	0.975 ± 0.061	1.01 ± 0.063
CCc1ccccc1 [ethylbenzene] + CCCC[P+](CCCC)(CCCC)CCCC.O=S(=O)([N-]S(=O)(=O)C(F)(F)F)C(F)(F)F	1.49 ± 0.1	1.54 ± 0.1	1.58 ± 0.1	1.63 ± 0.11	1.67 ± 0.11	1.71 ± 0.11
CCCCCCC [heptane] + CCCC[P+](CCCC)(CCCC)CCCC.O=S(=O)([N-]S(=O)(=O)C(F)(F)F)C(F)(F)F	5.4 ± 0.37	5.38 ± 0.37	5.37 ± 0.37	5.35 ± 0.36	5.34 ± 0.36	5.33 ± 0.36
C=CCCCC [hex-1-ene] + CCCC[P+](CCCC)(CCCC)CCCC.O=S(=O)([N-]S(=O)(=O)C(F)(F)F)C(F)(F)F	3.15 ± 0.21	3.2 ± 0.22	3.24 ± 0.22	3.28 ± 0.22	3.32 ± 0.23	3.35 ± 0.23
CCCCCC [hexane] + CCCC[P+](CCCC)(CCCC)CCCC.O=S(=O)([N-]S(=O)(=O)C(F)(F)F)C(F)(F)F	4.39 ± 0.3	4.41 ± 0.3	4.44 ± 0.3	4.46 ± 0.3	4.49 ± 0.31	4.51 ± 0.31
